Laboratory results as given in paper PMC9350837, “Erwinia tasmaniensis levansucrase shows enantiomer selection for (S)-1,2,4-butanetriol” (Acta Crystallographica. Section F, Structural Biology …, 2022).

Target: T1, EtLsc (Erwinia tasmaniensis levansucrase) (Erwinia tasmaniensis, UniProt B2VCC3)
T1 construct: gene lsc; lsc gene amplified from Et1/99, pMCSG49 vector, E. coli BL21(DE3) Star pLysS; His6 tag cleaved with TEV protease; IMAC and size exclusion; catalytic triad Asp46, Asp203, Glu287
Experiment: microscale thermophoresis, label-free (Monolith NT.LabelFree)
Format: binding

T1 sequence (B2VCC3 entry or part of it): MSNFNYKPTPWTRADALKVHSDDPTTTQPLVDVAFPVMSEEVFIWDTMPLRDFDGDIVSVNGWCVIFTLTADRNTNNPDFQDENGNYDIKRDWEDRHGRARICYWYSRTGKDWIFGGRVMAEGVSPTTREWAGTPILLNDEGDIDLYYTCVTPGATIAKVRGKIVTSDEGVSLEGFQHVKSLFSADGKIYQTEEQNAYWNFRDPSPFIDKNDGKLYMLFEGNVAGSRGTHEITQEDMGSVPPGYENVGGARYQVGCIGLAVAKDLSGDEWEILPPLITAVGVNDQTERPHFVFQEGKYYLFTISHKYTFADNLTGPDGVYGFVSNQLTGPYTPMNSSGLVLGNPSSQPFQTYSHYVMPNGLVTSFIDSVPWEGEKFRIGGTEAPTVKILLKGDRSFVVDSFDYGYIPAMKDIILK

OCC[C@H](O)CO (mixture of isomers) [(S)-1,2,4-butanetriol] was tested. Which Kd did it give?
Its Kd is 84.9 ± 13.4 mM.
